{"source": "patent US12435061B2", "about": "(priority 2020, dated 2025)", "molecular_target": "hTRPV3 (Homo sapiens (Human), UniProt Q8NET8)", "sequence (Q8NET8 whole entry)": "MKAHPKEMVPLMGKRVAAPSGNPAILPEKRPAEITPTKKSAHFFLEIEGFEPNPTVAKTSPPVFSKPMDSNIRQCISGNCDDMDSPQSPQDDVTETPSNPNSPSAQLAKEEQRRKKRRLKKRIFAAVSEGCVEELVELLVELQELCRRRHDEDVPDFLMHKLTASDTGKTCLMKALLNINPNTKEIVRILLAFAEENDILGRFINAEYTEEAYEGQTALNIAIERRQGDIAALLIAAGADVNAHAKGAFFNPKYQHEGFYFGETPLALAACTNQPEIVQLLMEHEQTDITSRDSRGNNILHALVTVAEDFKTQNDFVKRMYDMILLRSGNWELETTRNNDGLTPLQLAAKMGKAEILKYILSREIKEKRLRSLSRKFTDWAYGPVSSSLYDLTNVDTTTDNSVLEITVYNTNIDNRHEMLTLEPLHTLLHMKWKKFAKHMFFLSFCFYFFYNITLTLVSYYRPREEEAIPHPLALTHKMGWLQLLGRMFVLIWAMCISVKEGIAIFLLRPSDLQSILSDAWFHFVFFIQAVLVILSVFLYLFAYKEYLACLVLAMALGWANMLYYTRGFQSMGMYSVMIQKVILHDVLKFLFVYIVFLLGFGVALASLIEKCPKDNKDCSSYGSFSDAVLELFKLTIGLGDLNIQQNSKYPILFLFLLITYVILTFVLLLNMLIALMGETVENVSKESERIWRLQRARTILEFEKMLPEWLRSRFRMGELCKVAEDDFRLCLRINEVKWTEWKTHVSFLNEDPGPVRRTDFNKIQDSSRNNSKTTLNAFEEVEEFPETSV", "assay": "Whole-cell patch clamp, hTRPV3 Phase 1 / Phase 2 currents", "assay_type": "cell-based", "in_short": "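Whole-cell recordings on induced TRPV3 cells replated on coverslips, held at −40 mV with 400 ms ramps from −120 to +100 mV every 5 s; currents read at −80 and +80 mV. Ringer's external solution; current activated by heating to ≥28 °C or 20 μM 2-APB.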", "key": {"[1]": {"details": "Phase 1 current, inward, whole-cell patch clamp, read-out: hTRPV3 Patch P1 Inwd"}, "[2]": {"details": "Phase 1 current, read-out: hTRPV3 (nM) (Phase 1)"}, "[3]": {"details": "Phase 2 current, inward, whole-cell patch clamp, read-out: hTRPV3 Patch P2 Inwd"}, "[4]": {"details": "Phase 2 current, read-out: hTRPV3 (nM) (Phase 2)"}}, "note": "Where two headings read alike, the source gives them in different places.", "data": [{"smiles": "COc1ccccc1Oc1ccc(N2CC[C@H](Oc3ncccc3F)C2)c(CO)c1", "note": "[Compound 1-346, (S)-(2-(3-(3-fluoropyridin-2-yloxy)pyrrolidin-1-yl)-5-(2-methoxyphenoxy)phenyl)methanol]", "values": [{"measurement": "IC50", "setting": "[1]", "value": "100 to 1000", "unit": "nM"}, {"measurement": "IC50", "setting": "[2]", "value": 612, "unit": "nM"}]}, {"smiles": "COC(C)c1ccccc1Oc1ccc(N2CC[C@H](Oc3ccc(F)cn3)C2)c(CCO)c1", "note": "(stereo partly drawn) [Compound 1-347, 2-(2-((S)-3-(5-fluoropyridin-2-yloxy)pyrrolidin-1-yl)-5-(2-(1-methoxyethyl)phenoxy)phenyl)ethanol]", "values": [{"measurement": "IC50", "setting": "[1]", "value": "100 to 1000", "unit": "nM"}, {"measurement": "IC50", "setting": "[2]", "value": 220, "unit": "nM"}, {"measurement": "IC50", "setting": "[3]", "value": "100 to 1000", "unit": "nM"}, {"measurement": "IC50", "setting": "[4]", "value": 198, "unit": "nM"}]}, {"smiles": "COCc1ccccc1Oc1ccc(N2CC[C@H](Oc3ccccn3)C2)c(CCO)c1", "note": "[Compound 1-348, (S)-2-(5-(2-(methoxymethyl)phenoxy)-2-(3-(pyridin-2-yloxy)pyrrolidin-1-yl)phenyl) ethanol]", "values": [{"measurement": "IC50", "setting": "[1]", "value": "> 1000", "unit": "nM"}, {"measurement": "IC50", "setting": "[2]", "value": "> 3200", "unit": "nM"}]}, {"smiles": "COCc1ccccc1Oc1ccc(N2CC[C@H](Oc3ccc(C)cn3)C2)c(CCO)c1", "note": "[Compound 1-349, (S)-2-(5-(2-(methoxymethyl)phenoxy)-2-(3-(5-methylpyridin-2-yloxy)pyrrolidin-1-yl)phenyl)ethanol]", "values": [{"measurement": "IC50", "setting": "[1]", "value": "100 to 1000", "unit": "nM"}, {"measurement": "IC50", "setting": "[2]", "value": 908, "unit": "nM"}]}, {"smiles": "COCc1ccccc1Oc1ccc(N2CC[C@H](Oc3ncccc3C)C2)c(CCO)c1", "note": "[Compound 1-350, (S)-2-(5-(2-(methoxymethyl)phenoxy)-2-(3-(3-methylpyridin-2-yloxy)pyrrolidin-1-yl)phenyl)ethanol]", "values": [{"measurement": "IC50", "setting": "[1]", "value": "100 to 1000", "unit": "nM"}, {"measurement": "IC50", "setting": "[2]", "value": 311, "unit": "nM"}]}, {"smiles": "COCc1ccccc1Oc1ccc(N2CC[C@H](Oc3ncccc3F)C2)c(CCO)c1", "note": "[Compound 1-351, (S)-2-(2-(3-(3-fluoropyridin-2-yloxy)pyrrolidin-1-yl)-5-(2-(methoxymethyl)phenoxy)phenyl)ethanol]", "values": [{"measurement": "IC50", "setting": "[1]", "value": "100 to 1000", "unit": "nM"}, {"measurement": "IC50", "setting": "[2]", "value": 461, "unit": "nM"}]}, {"smiles": "CCc1ccccc1Oc1ccc(N2CC[C@H](Oc3ccc(C#N)cn3)C2)c(CO)c1", "note": "[Compound 1-352]", "values": [{"measurement": "IC50", "setting": "[1]", "value": "100 to 1000", "unit": "nM"}, {"measurement": "IC50", "setting": "[2]", "value": 974, "unit": "nM"}]}, {"smiles": "CC(C)c1ccccc1Oc1ccc(N2CC[C@H](Oc3ccc(C#N)cn3)C2)c(CO)c1", "note": "[Compound 1-353]", "values": [{"measurement": "IC50", "setting": "[1]", "value": "10 to 100", "unit": "nM"}, {"measurement": "IC50", "setting": "[2]", "value": 26.8, "unit": "nM"}]}, {"smiles": "OCCc1ccc(C(O)c2ccccc2Cl)cc1N1CC[C@H](Oc2ncccc2Cl)C1", "note": "(stereo partly drawn) [Compound 1-354, 2-(4-((2-chlorophenyl)(hydroxy)methyl)-2-((S)-3-(3-chloropyridin-2-yloxy)pyrrolidin-1-yl)phenyl)ethanol]", "values": [{"measurement": "IC50", "setting": "[1]", "value": "> 1000", "unit": "nM"}, {"measurement": "IC50", "setting": "[2]", "value": 1010, "unit": "nM"}]}, {"smiles": "COC(C)c1ccccc1Oc1ccc(N2CC[C@H](Oc3ccc(C)cn3)C2)c(CCO)c1", "note": "(stereo partly drawn) [Compound 1-355, 2-(5-(2-(1-methoxyethyl)phenoxy)-2-((S)-3-(5-methylpyridin-2-yloxy)pyrrolidin-1-yl)phenyl)ethanol]", "values": [{"measurement": "IC50", "setting": "[1]", "value": "100 to 1000", "unit": "nM"}, {"measurement": "IC50", "setting": "[2]", "value": 173, "unit": "nM"}]}, {"smiles": "N#Cc1cccc(C(O)c2ccc(N3CC[C@H](Oc4ncccc4Cl)C3)c(CCO)c2)c1", "note": "(stereo partly drawn) [Compound 1-356, 3-((4-((S)-3-(3-chloropyridin-2-yloxy)pyrrolidin-1-yl)-3-(2-hydroxyethyl)phenyl)(hydroxy)methyl)benzonitrile]", "values": [{"measurement": "IC50", "setting": "[1]", "value": "> 1000", "unit": "nM"}, {"measurement": "IC50", "setting": "[2]", "value": "> 3200", "unit": "nM"}]}, {"smiles": "COC(C)c1ccccc1Oc1ccc(N2CC[C@H](Oc3ccccn3)C2)c(CCO)c1", "note": "(stereo partly drawn) [Compound 1-357, 2-(5-(2-(1-methoxyethyl)phenoxy)-2-((S)-3(pyridin-2-yloxy)pyrrolidin-1-yl)phenyl)ethanol]", "values": [{"measurement": "IC50", "setting": "[1]", "value": "100 to 1000", "unit": "nM"}, {"measurement": "IC50", "setting": "[2]", "value": 312, "unit": "nM"}]}, {"smiles": "CCc1c(Oc2ccc(F)c(CO)c2)ncnc1N1CC[C@H](Oc2ncccc2Cl)C1", "note": "[Compound 1-359, (S)-(5-(6-(3-(3-chloropyridin-2-yloxy)pyrrolidin-1-yl)-5-ethylpyrimidin-4-yloxy)-2-fluorophenyl)methanol]", "values": [{"measurement": "hTRPV3 (nM) (Phase 1)", "setting": "Phase 1 current", "value": "Agonist (Phase 1)"}]}, {"smiles": "O=C(c1ccc(CCO)c(N2CC[C@H](Oc3ncccc3Cl)C2)c1)c1ccccc1Cl", "note": "[Compound 1-360, (S)-(2-chlorophenyl)(3-(3-(3-chloropyridin-2-yloxy)pyrrolidin-1-yl)-4-(2-hydroxyethyl)phenyl)methanone]", "values": [{"measurement": "IC50", "setting": "[1]", "value": "100 to 1000", "unit": "nM"}, {"measurement": "IC50", "setting": "[2]", "value": 770, "unit": "nM"}]}, {"smiles": "CCc1ccccc1Oc1ccc(N2CC[C@H](Oc3ccc(C#N)cn3)C2)c(CCO)c1", "note": "[Compound 1-361]", "values": [{"measurement": "IC50", "setting": "[1]", "value": "100 to 1000", "unit": "nM"}, {"measurement": "IC50", "setting": "[2]", "value": 117, "unit": "nM"}]}, {"smiles": "CC(C)c1ccccc1Oc1ccc(N2CC[C@H](Oc3ccc(C#N)cn3)C2)c(CCO)c1", "note": "[Compound 1-362]", "values": [{"measurement": "IC50", "setting": "[1]", "value": "10 to 100", "unit": "nM"}, {"measurement": "IC50", "setting": "[2]", "value": 61.2, "unit": "nM"}]}, {"smiles": "COc1ccccc1N1CCC(Nc2ncc(C(F)(F)F)cc2Cl)C1", "note": "(stereo not drawn) [Compound 1-370, 3-chloro-N-(1-(2-methoxyphenyl)pyrrolidin-3-yl)-5-(trifluoromethyl)pyridin-2-amine]", "values": [{"measurement": "IC50", "setting": "[1]", "value": "> 1000", "unit": "nM"}]}, {"smiles": "Cc1ccccc1N1CCC(Nc2ncc(C(F)(F)F)cc2Cl)C1", "note": "(stereo not drawn) [Compound 1-371, 3-chloro-N-(1-o-tolylpyrrolidin-3-yl)-5-(trifluoromethyl)pyridin-2-amine]", "values": [{"measurement": "IC50", "setting": "[1]", "value": "> 1000", "unit": "nM"}, {"measurement": "IC50", "setting": "[3]", "value": "> 1000", "unit": "nM"}]}, {"smiles": "NC(=O)c1cc(-c2ccccc2)ccc1N1CC[C@H](Nc2ccc(C(F)(F)F)cn2)C1", "note": "[Compound 1-372, (S)-4-(3-(5-(trifluoromethyl)pyridin-2-ylamino)pyrrolidin-1-yl)biphenyl-3-carboxamide]", "values": [{"measurement": "IC50", "setting": "[1]", "value": "> 1000", "unit": "nM"}, {"measurement": "IC50", "setting": "[3]", "value": "> 1000", "unit": "nM"}]}, {"smiles": "NC(=O)c1cc(-c2ccccc2)ccc1N1CC[C@H](Nc2ncccc2Cl)C1", "note": "[Compound 1-373, (S)-4-(3-(3-chloropyridin-2-ylamino)pyrrolidin-1-yl)biphenyl-3-carboxamide]", "values": [{"measurement": "IC50", "setting": "[3]", "value": "100 to 1000", "unit": "nM"}, {"measurement": "IC50", "setting": "[4]", "value": 669, "unit": "nM"}]}, {"smiles": "NC(=O)c1cc(-c2ccccc2)cnc1N1CC[C@H](Nc2ccc(C(F)(F)F)cn2)C1", "note": "[Compound 1-374, (S)-5-phenyl-2-(3-(5-(trifluoromethyl)pyridin-2-ylamino)pyrrolidin-1-yl)nicotinamide]", "values": [{"measurement": "IC50", "setting": "[1]", "value": "> 1000", "unit": "nM"}, {"measurement": "IC50", "setting": "[2]", "value": "> 3200", "unit": "nM"}, {"measurement": "IC50", "setting": "[3]", "value": "> 1000", "unit": "nM"}, {"measurement": "IC50", "setting": "[4]", "value": "> 3200", "unit": "nM"}]}, {"smiles": "NC(=O)c1cc(-c2ccccn2)ccc1N1CC[C@H](Nc2ccc(C(F)(F)F)cn2)C1", "note": "[Compound 1-376, (S)-5-(pyridin-2-yl)-2-(3-(5-(trifluoromethyl)pyridin-2-ylamino)pyrrolidin-1-yl)benzamide]", "values": [{"measurement": "IC50", "setting": "[1]", "value": "> 1000", "unit": "nM"}, {"measurement": "IC50", "setting": "[2]", "value": "> 3200", "unit": "nM"}, {"measurement": "IC50", "setting": "[3]", "value": "> 1000", "unit": "nM"}, {"measurement": "IC50", "setting": "[4]", "value": "> 3200", "unit": "nM"}]}, {"smiles": "NC(=O)c1cc(-c2ccccc2)cnc1N1CC[C@@H](Nc2ccc(C(F)(F)F)cn2)C1", "note": "[Compound 1-378, (R)-5-phenyl-2-(3-(5-(trifluoromethyl)pyridin-2-ylamino)pyrrolidin-1-yl)nicotinamide]", "values": [{"measurement": "IC50", "setting": "[1]", "value": "> 1000", "unit": "nM"}, {"measurement": "IC50", "setting": "[2]", "value": "> 3200", "unit": "nM"}, {"measurement": "IC50", "setting": "[3]", "value": "> 1000", "unit": "nM"}, {"measurement": "IC50", "setting": "[4]", "value": "> 3200", "unit": "nM"}]}, {"smiles": "Cc1ccccc1-c1ccc(N2CC[C@H](Nc3ccc(C(F)(F)F)cn3)C2)c(CO)n1", "note": "[Compound 1-379, (S)-(6-o-tolyl-3-(3-(5-(trifluoromethyl)pyridin-2-ylamino)pyrrolidin-1-yl)pyridin-2-yl)methanol]", "values": [{"measurement": "IC50", "setting": "[1]", "value": "> 1000", "unit": "nM"}, {"measurement": "IC50", "setting": "[2]", "value": "> 3200", "unit": "nM"}, {"measurement": "IC50", "setting": "[3]", "value": "> 1000", "unit": "nM"}, {"measurement": "IC50", "setting": "[4]", "value": "> 3200", "unit": "nM"}]}, {"smiles": "CCc1ccccc1C(=O)c1ccc(N2CC[C@H](Nc3ncccc3Cl)C2)c(CO)c1", "note": "[Compound 1-384, (S)-(4-(3-(3-chloropyridin-2-ylamino)pyrrolidin-1-yl)-3-(hydroxymethyl)phenyl)(2-ethylphenyl)methanone]", "values": [{"measurement": "IC50", "setting": "[1]", "value": "100 to 1000", "unit": "nM"}, {"measurement": "IC50", "setting": "[2]", "value": 495, "unit": "nM"}]}, {"smiles": "CCc1ccccc1C(O)c1ccc(N2CC[C@H](Nc3ncccc3Cl)C2)c(CCO)c1", "note": "(stereo partly drawn) [Compound 1-385, 2-(2-((S)-3-(3-chloropyridin-2-ylamino)pyrrolidin-1-yl)-5-((2-ethylphenyl)(hydroxy)methyl)phenyl)ethanol]", "values": [{"measurement": "IC50", "setting": "[1]", "value": "> 1000", "unit": "nM"}, {"measurement": "IC50", "setting": "[2]", "value": "> 3200", "unit": "nM"}]}]}
